From patent publication US7074789B2, “Kinase inhibitors” (Amgen Inc., priority 1999, dated 2006) come the findings set out here.

What all share (format): biochemical
One assay has as its target T1, Tek (Homo sapiens, UniProt Q02763).
T1 construct: Kinases are expressed as either kinase domains or full length constructs; made in house
Nature of the assay: Kinase inhibition assay (33P transfer), Tek. The following applies: read-out: Tek-1. In a few lines:
(§1)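 Steps: coat wells with poly(Glu,Tyr) 4:1 or poly(Arg,Ser) 3:1; add purified kinase, [33P]ATP and inhibitor; incubate; wash with 0.5% phosphoric acid; add liquid scintillant; count. IC50 corresponds to half-maximal reduction of bound 33P.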

For another assay, the target named is T2, c-Met (Homo sapiens, UniProt P08581).
T2 construct: Kinases are expressed as either kinase domains or full length constructs; made in house
Nature of the assay: Kinase inhibition assay (33P transfer), c-Met. The following applies: Table 2, kinase inhibition class; read-out: Met-1. In short, it runs like this:
as §1

The target in the next assay is T3, Zap-70 (Homo sapiens, UniProt P43403).
T3 construct: Kinases are expressed as either kinase domains or full length constructs; made in house
T3 sequence (P43403 1-619): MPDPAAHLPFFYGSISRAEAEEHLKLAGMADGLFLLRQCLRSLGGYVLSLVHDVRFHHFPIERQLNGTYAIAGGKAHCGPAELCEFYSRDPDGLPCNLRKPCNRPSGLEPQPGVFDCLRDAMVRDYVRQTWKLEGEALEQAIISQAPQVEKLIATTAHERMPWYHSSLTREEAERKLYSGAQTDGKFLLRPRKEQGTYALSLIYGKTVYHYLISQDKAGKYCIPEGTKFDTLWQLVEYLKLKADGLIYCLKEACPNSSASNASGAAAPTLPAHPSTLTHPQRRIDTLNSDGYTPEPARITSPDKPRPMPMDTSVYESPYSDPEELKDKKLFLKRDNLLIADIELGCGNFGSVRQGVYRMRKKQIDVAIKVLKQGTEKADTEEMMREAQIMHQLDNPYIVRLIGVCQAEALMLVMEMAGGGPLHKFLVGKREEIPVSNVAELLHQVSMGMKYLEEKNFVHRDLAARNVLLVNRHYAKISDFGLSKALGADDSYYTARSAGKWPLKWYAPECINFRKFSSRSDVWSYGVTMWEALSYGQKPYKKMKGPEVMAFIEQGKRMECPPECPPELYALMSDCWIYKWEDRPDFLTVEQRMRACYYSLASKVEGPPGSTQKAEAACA
Nature of the assay: Kinase inhibition assay (33P transfer), Zap-70. The following applies: Table 3; read-out: Zap-1. In a few lines:
(§2)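 Activity was read as 33P incorporation, counted by liquid scintillation after a 0.5% phosphoric acid wash, into poly(Glu,Tyr) 4:1 or poly(Arg,Ser) 3:1 substrates coated on plates. Enzymes were tagged (GST or polyHis) kinase domains or full-length proteins from bacterial or insect-cell expression, sometimes with regulatory polypeptides.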

For a further assay, the target named is T4, EPHB4 (Homo sapiens, UniProt P54760).
T4 construct: Kinases are expressed as either kinase domains or full length constructs; made in house
T4 sequence (P54760 16-987): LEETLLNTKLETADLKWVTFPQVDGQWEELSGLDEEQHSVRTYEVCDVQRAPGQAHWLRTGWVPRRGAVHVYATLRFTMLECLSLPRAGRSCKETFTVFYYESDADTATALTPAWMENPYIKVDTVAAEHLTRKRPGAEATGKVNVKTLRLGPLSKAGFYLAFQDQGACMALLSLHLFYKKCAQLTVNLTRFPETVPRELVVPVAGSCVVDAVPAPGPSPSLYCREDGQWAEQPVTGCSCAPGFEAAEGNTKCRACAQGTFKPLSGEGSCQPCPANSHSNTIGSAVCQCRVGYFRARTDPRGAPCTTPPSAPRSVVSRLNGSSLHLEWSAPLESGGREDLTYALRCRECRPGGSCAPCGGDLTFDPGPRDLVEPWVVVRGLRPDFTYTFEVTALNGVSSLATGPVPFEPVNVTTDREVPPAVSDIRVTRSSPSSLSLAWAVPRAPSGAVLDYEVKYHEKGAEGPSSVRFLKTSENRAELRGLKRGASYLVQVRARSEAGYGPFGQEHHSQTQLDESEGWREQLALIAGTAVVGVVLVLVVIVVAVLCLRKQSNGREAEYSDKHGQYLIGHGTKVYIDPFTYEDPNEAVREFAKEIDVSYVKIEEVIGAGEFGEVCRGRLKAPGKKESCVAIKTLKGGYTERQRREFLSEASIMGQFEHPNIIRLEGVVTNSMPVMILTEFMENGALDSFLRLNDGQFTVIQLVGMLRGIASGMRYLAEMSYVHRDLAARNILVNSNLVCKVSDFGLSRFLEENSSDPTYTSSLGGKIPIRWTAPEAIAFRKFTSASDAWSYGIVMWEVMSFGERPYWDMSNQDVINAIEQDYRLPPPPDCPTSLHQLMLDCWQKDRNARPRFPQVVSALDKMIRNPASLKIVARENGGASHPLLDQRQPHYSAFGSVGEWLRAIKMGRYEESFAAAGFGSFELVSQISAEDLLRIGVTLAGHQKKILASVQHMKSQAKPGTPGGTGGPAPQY
Nature of the assay: Kinase inhibition assay (33P transfer), EPHB4. To be noted: read-out: EPHB4-1.

A further assay deals with T5, Lck (Homo sapiens, UniProt P06239).
T5 construct: Kinases are expressed as either kinase domains or full length constructs; made in house
Put plainly: Kinase inhibition assay (33P transfer), Lck. The following applies: Table 3; read-out: Lck-1. In short, it runs like this: as §2

The next assay has as its target T6, Kdr (Homo sapiens, UniProt P35968).
T6 construct: Kinases are expressed as either kinase domains or full length constructs; made in house
Nature of the assay: Kinase inhibition assay (33P transfer), Kdr. To be noted: Table 3; read-out: KDR-1. In a few lines:
as §2

The target in a further assay is T7, Itk (Homo sapiens, UniProt Q08881).
T7 construct: Kinases are expressed as either kinase domains or full length constructs; made in house
T7 sequence (Q08881 1-620): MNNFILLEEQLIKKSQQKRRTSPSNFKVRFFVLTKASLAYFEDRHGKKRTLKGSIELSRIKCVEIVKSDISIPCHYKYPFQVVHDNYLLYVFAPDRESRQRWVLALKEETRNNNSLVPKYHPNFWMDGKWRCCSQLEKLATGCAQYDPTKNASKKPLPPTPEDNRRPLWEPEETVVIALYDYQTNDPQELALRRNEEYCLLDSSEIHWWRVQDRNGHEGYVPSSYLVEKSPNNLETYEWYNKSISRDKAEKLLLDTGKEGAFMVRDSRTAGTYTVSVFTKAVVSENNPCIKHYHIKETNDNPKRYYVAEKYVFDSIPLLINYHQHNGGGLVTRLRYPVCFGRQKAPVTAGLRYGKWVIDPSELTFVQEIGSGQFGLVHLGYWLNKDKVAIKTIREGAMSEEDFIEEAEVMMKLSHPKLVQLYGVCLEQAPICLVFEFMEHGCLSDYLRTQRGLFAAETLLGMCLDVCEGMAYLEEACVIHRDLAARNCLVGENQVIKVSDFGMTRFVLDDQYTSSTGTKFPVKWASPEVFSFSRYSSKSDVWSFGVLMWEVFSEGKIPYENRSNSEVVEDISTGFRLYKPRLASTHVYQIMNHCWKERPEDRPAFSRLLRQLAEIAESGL
Put plainly: Kinase inhibition assay (33P transfer), Itk. To be noted: Table 3; read-out: Itk-1. In a few lines: as §1

For a further assay, the target named is T8, EGFR (Homo sapiens, UniProt P00533).
T8 construct: Kinases are expressed as either kinase domains or full length constructs; made in house
Nature of the assay: Kinase inhibition assay (33P transfer), EGFR. To be noted: Table 2, kinase inhibition class; read-out: EGFR-1. In a few lines: as §1

The next assay has as its target T9, AKT (Homo sapiens, UniProt Q9Y243).
T9 construct: Kinases are expressed as either kinase domains or full length constructs; made in house
Put plainly: Kinase inhibition assay (33P transfer), AKT. To be noted: Table 2, kinase inhibition class; read-out: AKT3-1. In short, it runs like this: as §2

For a further assay, the target named is T10, IGFR-1 (Homo sapiens, UniProt P08069).
T10 construct: Kinases are expressed as either kinase domains or full length constructs; made in house
Put plainly: Kinase inhibition assay (33P transfer), IGFR-1. The following applies: Table 2, kinase inhibition class.

T8 sequence (P00533 25-1210, species assumed): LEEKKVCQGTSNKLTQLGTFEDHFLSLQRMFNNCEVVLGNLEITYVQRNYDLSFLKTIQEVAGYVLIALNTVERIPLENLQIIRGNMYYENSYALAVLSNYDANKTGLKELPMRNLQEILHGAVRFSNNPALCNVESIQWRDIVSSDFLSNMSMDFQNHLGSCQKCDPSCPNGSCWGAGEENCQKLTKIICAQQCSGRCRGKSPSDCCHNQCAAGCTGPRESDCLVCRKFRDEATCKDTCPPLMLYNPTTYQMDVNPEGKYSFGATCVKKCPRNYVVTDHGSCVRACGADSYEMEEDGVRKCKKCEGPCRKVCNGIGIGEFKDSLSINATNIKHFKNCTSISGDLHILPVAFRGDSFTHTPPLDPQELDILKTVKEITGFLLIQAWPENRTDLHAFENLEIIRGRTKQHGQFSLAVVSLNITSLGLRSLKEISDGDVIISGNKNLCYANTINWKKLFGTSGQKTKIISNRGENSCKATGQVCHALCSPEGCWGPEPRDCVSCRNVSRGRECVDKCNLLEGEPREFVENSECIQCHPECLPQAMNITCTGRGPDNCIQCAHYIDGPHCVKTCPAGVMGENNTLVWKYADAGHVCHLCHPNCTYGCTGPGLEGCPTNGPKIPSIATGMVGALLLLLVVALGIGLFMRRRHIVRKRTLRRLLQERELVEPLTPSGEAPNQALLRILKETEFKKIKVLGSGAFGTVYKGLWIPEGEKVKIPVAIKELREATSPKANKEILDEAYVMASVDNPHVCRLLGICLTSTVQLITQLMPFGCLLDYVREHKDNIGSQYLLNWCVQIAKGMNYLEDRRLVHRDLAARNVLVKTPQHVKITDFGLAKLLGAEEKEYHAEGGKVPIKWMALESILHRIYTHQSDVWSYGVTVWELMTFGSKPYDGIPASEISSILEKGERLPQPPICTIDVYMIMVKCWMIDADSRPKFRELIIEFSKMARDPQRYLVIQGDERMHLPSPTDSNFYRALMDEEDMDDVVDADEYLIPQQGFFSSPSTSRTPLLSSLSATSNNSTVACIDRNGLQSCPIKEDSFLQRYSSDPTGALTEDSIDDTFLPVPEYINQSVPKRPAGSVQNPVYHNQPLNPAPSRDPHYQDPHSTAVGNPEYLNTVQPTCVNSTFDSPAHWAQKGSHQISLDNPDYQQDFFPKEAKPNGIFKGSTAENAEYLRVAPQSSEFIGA
T5 sequence (P06239 whole entry, species assumed, the tested form may be a part): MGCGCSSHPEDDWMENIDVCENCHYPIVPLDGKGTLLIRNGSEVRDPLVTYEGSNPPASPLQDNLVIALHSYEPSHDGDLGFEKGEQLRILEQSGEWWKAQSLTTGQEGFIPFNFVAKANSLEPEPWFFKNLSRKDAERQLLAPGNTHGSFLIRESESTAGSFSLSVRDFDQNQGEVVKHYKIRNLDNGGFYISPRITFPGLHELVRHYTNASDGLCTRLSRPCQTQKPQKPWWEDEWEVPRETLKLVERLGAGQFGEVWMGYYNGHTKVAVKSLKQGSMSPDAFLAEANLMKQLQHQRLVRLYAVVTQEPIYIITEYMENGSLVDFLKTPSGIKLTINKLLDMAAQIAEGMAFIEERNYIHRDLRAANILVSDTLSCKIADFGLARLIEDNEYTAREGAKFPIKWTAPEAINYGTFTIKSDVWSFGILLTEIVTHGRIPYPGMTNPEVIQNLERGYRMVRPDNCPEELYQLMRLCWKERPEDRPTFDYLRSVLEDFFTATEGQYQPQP
T10 sequence (P08069 31-1367): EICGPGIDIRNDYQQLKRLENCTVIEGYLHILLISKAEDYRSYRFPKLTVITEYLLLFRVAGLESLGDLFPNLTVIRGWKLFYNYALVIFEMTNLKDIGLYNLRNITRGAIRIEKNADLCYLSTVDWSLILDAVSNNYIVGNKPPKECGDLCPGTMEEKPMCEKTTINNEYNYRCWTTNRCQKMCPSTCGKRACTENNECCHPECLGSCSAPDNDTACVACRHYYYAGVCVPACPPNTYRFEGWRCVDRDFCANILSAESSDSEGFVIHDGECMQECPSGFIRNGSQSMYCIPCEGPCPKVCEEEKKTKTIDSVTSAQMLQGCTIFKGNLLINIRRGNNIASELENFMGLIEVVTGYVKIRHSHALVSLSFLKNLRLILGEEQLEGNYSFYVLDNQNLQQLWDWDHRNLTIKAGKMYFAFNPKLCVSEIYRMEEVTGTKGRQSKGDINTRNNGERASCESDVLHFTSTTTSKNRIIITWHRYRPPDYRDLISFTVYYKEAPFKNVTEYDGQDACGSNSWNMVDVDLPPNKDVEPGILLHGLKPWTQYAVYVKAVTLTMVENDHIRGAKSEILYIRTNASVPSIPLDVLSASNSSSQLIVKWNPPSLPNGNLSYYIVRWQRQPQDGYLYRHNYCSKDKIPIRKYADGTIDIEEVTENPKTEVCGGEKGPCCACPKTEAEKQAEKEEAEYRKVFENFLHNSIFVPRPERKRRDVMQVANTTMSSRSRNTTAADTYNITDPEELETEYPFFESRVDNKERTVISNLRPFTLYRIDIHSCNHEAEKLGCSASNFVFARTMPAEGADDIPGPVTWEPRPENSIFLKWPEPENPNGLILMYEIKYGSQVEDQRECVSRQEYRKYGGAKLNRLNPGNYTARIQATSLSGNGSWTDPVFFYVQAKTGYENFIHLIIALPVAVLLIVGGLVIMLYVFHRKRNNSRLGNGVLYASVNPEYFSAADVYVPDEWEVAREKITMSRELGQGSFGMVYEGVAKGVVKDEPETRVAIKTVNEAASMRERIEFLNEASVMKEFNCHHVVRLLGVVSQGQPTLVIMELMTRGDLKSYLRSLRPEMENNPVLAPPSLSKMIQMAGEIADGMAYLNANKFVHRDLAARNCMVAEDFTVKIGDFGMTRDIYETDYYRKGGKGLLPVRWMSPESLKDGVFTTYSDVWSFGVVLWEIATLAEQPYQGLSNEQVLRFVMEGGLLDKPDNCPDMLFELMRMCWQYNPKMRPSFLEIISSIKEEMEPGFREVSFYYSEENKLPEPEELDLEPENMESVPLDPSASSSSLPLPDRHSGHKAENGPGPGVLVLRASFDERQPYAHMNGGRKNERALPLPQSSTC
T1 sequence (Q02763 23-1124, species assumed): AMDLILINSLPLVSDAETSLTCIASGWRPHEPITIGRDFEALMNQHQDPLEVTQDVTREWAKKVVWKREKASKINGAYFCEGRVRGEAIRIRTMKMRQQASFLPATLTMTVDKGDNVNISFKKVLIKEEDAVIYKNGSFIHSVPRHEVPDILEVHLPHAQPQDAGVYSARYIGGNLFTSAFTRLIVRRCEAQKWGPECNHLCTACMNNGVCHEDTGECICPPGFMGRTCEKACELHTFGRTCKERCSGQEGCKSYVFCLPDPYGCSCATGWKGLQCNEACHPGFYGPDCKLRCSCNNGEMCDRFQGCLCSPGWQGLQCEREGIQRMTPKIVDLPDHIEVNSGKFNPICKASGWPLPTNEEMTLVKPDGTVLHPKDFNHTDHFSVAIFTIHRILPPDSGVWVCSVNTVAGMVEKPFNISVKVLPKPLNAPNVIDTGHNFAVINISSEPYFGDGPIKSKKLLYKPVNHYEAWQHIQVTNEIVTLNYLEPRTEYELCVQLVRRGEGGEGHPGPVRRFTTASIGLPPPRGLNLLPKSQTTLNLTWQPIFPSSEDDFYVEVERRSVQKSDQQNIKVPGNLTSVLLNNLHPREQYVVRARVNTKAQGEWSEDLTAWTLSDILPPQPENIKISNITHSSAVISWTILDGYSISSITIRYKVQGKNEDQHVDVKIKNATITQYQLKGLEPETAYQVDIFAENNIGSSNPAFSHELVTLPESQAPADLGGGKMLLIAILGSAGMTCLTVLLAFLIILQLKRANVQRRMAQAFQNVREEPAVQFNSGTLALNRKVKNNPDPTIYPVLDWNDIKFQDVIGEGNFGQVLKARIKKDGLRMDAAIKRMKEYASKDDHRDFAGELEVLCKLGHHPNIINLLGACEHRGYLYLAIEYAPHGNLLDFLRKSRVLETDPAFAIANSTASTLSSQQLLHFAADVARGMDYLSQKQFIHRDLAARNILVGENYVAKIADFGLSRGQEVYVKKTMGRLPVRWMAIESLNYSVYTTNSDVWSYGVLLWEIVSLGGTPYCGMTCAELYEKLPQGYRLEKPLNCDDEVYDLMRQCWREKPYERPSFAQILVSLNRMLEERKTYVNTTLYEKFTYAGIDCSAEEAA
T9 sequence (Q9Y243 whole entry, the tested form may be a part): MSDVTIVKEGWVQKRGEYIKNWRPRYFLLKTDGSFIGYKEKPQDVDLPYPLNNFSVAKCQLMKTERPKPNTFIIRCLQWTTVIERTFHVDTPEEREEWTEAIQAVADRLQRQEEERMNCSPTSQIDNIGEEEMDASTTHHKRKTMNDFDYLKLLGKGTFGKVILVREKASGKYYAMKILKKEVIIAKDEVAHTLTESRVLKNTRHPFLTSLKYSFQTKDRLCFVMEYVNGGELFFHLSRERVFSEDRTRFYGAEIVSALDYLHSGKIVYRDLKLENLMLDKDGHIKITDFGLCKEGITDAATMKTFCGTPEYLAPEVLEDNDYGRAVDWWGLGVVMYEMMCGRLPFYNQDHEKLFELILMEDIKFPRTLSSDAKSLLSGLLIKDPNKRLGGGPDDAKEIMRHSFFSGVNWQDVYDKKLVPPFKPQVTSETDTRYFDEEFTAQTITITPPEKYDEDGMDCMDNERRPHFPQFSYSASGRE

Regarding `COc1cc(NC(=O)Nc2ncnc(Nc3cc(OC)c(OC)c(OC)c3)n2)cc(OC)c1` [Compound 22], the IC50 at Tek was 7.67 to 9.86 µM; on c-Met it was above 9.86 µM; at Zap-70, above 9.86 µM; on EPHB4, above 9.86 µM; on Lck, above 9.86 µM; on Kdr, above 9.86 µM. For the same compound, the IC50 on Itk, at EGFR, on AKT and at IGFR-1 was above 9.86 µM throughout.

On to `COc1cc(Nc2ncnc(-n3c(Nc4ccc(Cl)cc4)nc4ccccc43)n2)cc(OC)c1OC` [Compound 375], for which the IC50 at Tek is above 8.93 µM; on c-Met it was above 8.93 µM; at Zap-70, above 8.93 µM; at EPHB4, above 8.93 µM; at Lck it was 4.76 to 6.95 µM; on Kdr, 0.794 to 4.76 µM. For the same compound, the IC50 at Itk, on EGFR, on AKT and on IGFR-1 was above 8.93 µM each time.

In the case of `COc1cc(OC)cc(-c2nnc(Nc3ncnc(Nc4cc(OC)c(OC)c(OC)c4)n3)[nH]2)c1` [Compound 312], the IC50 on Tek, on c-Met, at Zap-70, on EPHB4, on Lck and at Kdr was above 9.37 µM throughout. The IC50 at Itk, at EGFR, on AKT and at IGFR-1 was above 9.37 µM each time.

As for `COc1cc(Nc2ncnc(Nc3ccc(-c4ccccc4)cc3)n2)cc(OC)c1OC` [Compound 100], the IC50 was above 10.5 µM at Tek; above 10.5 µM on c-Met; 0.931 to 5.59 µM on Zap-70; 0.931 to 5.59 µM at EPHB4; above 10.5 µM at Lck; 0.931 to 5.59 µM at Kdr. In addition, the IC50 on Itk is above 10.5 µM; on EGFR it was 8.15 to 10.5 µM; on AKT it was 5.59 to 8.15 µM; against IGFR-1, 5.59 to 8.15 µM.

Take `COc1cc(Nc2ncnc(Nc3ccc(N(C)C(C)=O)cc3)n2)cc(OC)c1OC` [Compound 81]: the IC50 at Tek is above 10.6 µM; at c-Met it was above 10.6 µM; on Zap-70, above 10.6 µM; on EPHB4 it was above 10.6 µM; on Lck, 0.942 to 5.65 µM; on Kdr, 0.942 to 5.65 µM. Besides, the IC50 at Itk, at EGFR, at AKT and at IGFR-1 was above 10.6 µM throughout.

With `COCCOc1ccc(Nc2ncnc(Nc3ccc(C)c(F)c3)n2)cc1OCCOC` [Compound 322], the IC50 is above 10.1 µM at Tek; above 10.1 µM at c-Met; above 10.1 µM at Zap-70; above 10.1 µM at EPHB4; above 10.1 µM on Lck; 0.902 to 5.41 µM at Kdr. In addition, the IC50 at Itk, on EGFR, on AKT and at IGFR-1 was above 10.1 µM each time.

Take `COc1cc(Nc2ncnc(N(CC(=O)OC(C)(C)C)c3ccc4c(c3)OCO4)n2)cc(OC)c1OC` [Compound 309]: the IC50 at Tek was above 8.8 µM; at c-Met, above 8.8 µM; at Zap-70 it was above 8.8 µM; at EPHB4, above 8.8 µM; at Lck, 6.84 to 8.8 µM; on Kdr, 6.84 to 8.8 µM. Besides, the IC50 at Itk is above 8.8 µM; at EGFR, 4.69 to 6.84 µM; at AKT, above 8.8 µM; against IGFR-1 it was above 8.8 µM.

Consider `COc1ccc(Nc2ncnc(Nc3ccc(F)c(Cl)c3)n2)cc1OC` [Compound 113], for which the IC50 on Tek was above 12 µM; at c-Met, above 12 µM; at Zap-70, above 12 µM; on EPHB4, 6.39 to 9.31 µM; at Lck it was above 12 µM; at Kdr, above 12 µM. The IC50 is above 12 µM at Itk, 1.06 to 6.39 µM at EGFR, above 12 µM at AKT and below 1.06 µM against IGFR-1.

`COc1cc(Nc2ncnc(Nc3ccc(F)cc3)n2)cc(OC)c1OC` [Compound 303]: the IC50 was 1.08 to 6.46 µM at Tek; above 12.1 µM on c-Met; above 12.1 µM at Zap-70; 9.42 to 12.1 µM at EPHB4; 1.08 to 6.46 µM at Lck; 1.08 to 6.46 µM on Kdr. Further, the IC50 at Itk was above 12.1 µM; at EGFR it was 1.08 to 6.46 µM; on AKT, above 12.1 µM; on IGFR-1 it was 1.08 to 6.46 µM.

As for `Oc1ccc(Nc2ncnc(Nc3ccc(OCc4ccccc4)cc3)n2)cc1` [Compound 158], the IC50 at Tek lay within 6.23 to 9.08 µM; on c-Met, 1.04 to 6.23 µM; on Zap-70, 1.04 to 6.23 µM; on EPHB4, 1.04 to 6.23 µM; on Lck it was 9.08 to 11.7 µM; on Kdr it was 1.04 to 6.23 µM. In addition, the IC50 at Itk is above 11.7 µM; on EGFR, 1.04 to 6.23 µM; on AKT it was 1.04 to 6.23 µM; against IGFR-1 it was 6.23 to 9.08 µM.

For the compound `COc1cc(Nc2ncnc(N3CCN(C)CC3)n2)cc(OC)c1OC` [Compound 212], the IC50 on Tek, on c-Met, on Zap-70, at EPHB4, at Lck and at Kdr was above 12.5 µM in each case. In addition, the IC50 on Itk, on EGFR, at AKT and at IGFR-1 was above 12.5 µM throughout.
